Test results as given in patent publication US20230075856A1, “CYCLIC SULFAMIDE COMPOUNDS FOR TREATMENT OF HBV” (Assembly Biosciences, Inc., priority 2018, published 2023).
Like-named read-outs stand apart in the source and are kept apart here.

Test system: HBV viral load production from HepAD38 cells
Assay: Viral production from HepAD38 cells: viral load in supernatant by qPCR of the HBV core sequence
Format: cell-based
Details: 5 days incubation, qPCR of supernatant HBV DNA vs DMSO control, read-out: viral load lowering EC50 (Activity)
How it was run: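 HepAD38 cells seeded at 50,000/well in tetracycline-free medium with 2% FBS, treated with compounds (final top concentration 10 μM) for 5 days at 37 °C. Supernatant HBV DNA quantified by TaqMan qPCR of core sequence against HBV DNA standards, relative to DMSO controls; EC50 by four-parameter logistic fit.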

[1] = Hepatitis B virus, HePAD38, 120 h

SMILES: Cc1nc(-c2ccccc2)sc1CNC(=O)C1CC(C(=O)Nc2ccc(F)c(C#N)c2)N(C)S(=O)(=O)N1 (single isomer, unassigned) [1136-ISOMER-A, N3-(3-cyano-4-fluoro-phenyl)-2-methyl-N5-[(4-methyl-2-phenyl-thiazol-5-yl)methyl]-1,1-dioxo-1,2,6-thiadiazinane-3,5-dicarboxamide]
- EC50 [1]: < 0.05 µM

SMILES: Cc1nc(-c2ccccc2)sc1CNC(=O)C1CC(C(=O)Nc2ccc(F)c(C#N)c2)N(C)S(=O)(=O)N1 (single isomer, unassigned) [1136-ISOMER-B, N3-(3-cyano-4-fluoro-phenyl)-2-methyl-N5-[(4-methyl-2-phenyl-thiazol-5-yl)methyl]-1,1-dioxo-1,2,6-thiadiazinane-3,5-dicarboxamide]
- EC50: 0.1 to 10 µM

SMILES: Cc1cn(-c2ccc(F)cc2)nc1CNC(=O)C1CC(C(=O)Nc2ccc(F)c(Cl)c2)N(C)S(=O)(=O)N1 (single isomer, unassigned) [1141-ISOMER-A, N3-(3-chloro-4-fluoro-phenyl)-N5-[[1-(4-fluorophenyl)-4-methyl-pyrazol-3-yl]methyl]-2-methyl-1,1-dioxo-1,2,6-thiadiazinane-3,5-dicarboxamide]
- EC50 [1]: < 0.05 µM

SMILES: Cc1cn(-c2ccc(F)cc2)nc1CNC(=O)C1CC(C(=O)Nc2ccc(F)c(Cl)c2)N(C)S(=O)(=O)N1 (single isomer, unassigned) [1141-ISOMER-B, N3-(3-chloro-4-fluoro-phenyl)-N5-[[1-(4-fluorophenyl)-4-methyl-pyrazol-3-yl]methyl]-2-methyl-1,1-dioxo-1,2,6-thiadiazinane-3,5-dicarboxamide]
- EC50: 0.1 to 10 µM

SMILES: Cc1cn(-c2ccccc2F)nc1CNC(=O)C1CC(C(=O)Nc2ccc(F)c(Cl)c2)N(C)S(=O)(=O)N1 (single isomer, unassigned) [1142-ISOMER-A, N3-(3-chloro-4-fluoro-phenyl)-N5-[[1-(2-fluorophenyl)-4-methyl-pyrazol-3-yl]methyl]-2-methyl-1,1-dioxo-1,2,6-thiadiazinane-3,5-dicarboxamide]
- EC50 [1]: < 0.05 µM

SMILES: Cc1cn(-c2ccccc2F)nc1CNC(=O)C1CC(C(=O)Nc2ccc(F)c(Cl)c2)N(C)S(=O)(=O)N1 (single isomer, unassigned) [1142-ISOMER-B, N3-(3-chloro-4-fluoro-phenyl)-N5-[[1-(2-fluorophenyl)-4-methyl-pyrazol-3-yl]methyl]-2-methyl-1,1-dioxo-1,2,6-thiadiazinane-3,5-dicarboxamide]
- EC50: 0.1 to 10 µM

SMILES: CN1C(C(=O)Nc2ccc(F)c(Cl)c2)CC(C(=O)NCc2cc(-c3ccc(F)cc3)nn2C)NS1(=O)=O (single isomer, unassigned) [1143-ISOMER-A, N3-(3-chloro-4-fluoro-phenyl)-N5-[[5-(4-fluorophenyl)-2-methyl-pyrazol-3-yl]methyl]-2-methyl-1,1-dioxo-1,2,6-thiadiazinane-3,5-dicarboxamide]
- EC50 [1]: 0.1 to 10 µM

SMILES: CN1C(C(=O)Nc2ccc(F)c(Cl)c2)CC(C(=O)NCc2cc(-c3ccc(F)cc3)nn2C)NS1(=O)=O (single isomer, unassigned) [1143-ISOMER-B, N3-(3-chloro-4-fluoro-phenyl)-N5-[[5-(4-fluorophenyl)-2-methyl-pyrazol-3-yl]methyl]-2-methyl-1,1-dioxo-1,2,6-thiadiazinane-3,5-dicarboxamide]
- EC50: < 0.05 µM

SMILES: Cc1cn(-c2ccc(F)cc2F)nc1CNC(=O)C1CC(C(=O)Nc2ccc(F)c(Cl)c2)N(C)S(=O)(=O)N1 (single isomer, unassigned) [1144-ISOMER-A, N3-(3-chloro-4-fluoro-phenyl)-N5-[[1-(2,4-difluorophenyl)-4-methyl-pyrazol-3-yl]methyl]-2-methyl-1,1-dioxo-1,2,6-thiadiazinane-3,5-dicarboxamide]
- EC50 [1]: < 0.05 µM

SMILES: Cc1cn(-c2ccc(F)cc2F)nc1CNC(=O)C1CC(C(=O)Nc2ccc(F)c(Cl)c2)N(C)S(=O)(=O)N1 (single isomer, unassigned) [1144-ISOMER-B, N3-(3-chloro-4-fluoro-phenyl)-N5-[[1-(2,4-difluorophenyl)-4-methyl-pyrazol-3-yl]methyl]-2-methyl-1,1-dioxo-1,2,6-thiadiazinane-3,5-dicarboxamide]
- EC50: 0.1 to 10 µM

SMILES: CN1C(C(=O)Nc2ccc(F)c(Cl)c2)CC(C(=O)NCc2cn(-c3ccccc3)cn2)NS1(=O)=O (single isomer, unassigned) [1145-ISOMER-A, N3-(3-chloro-4-fluoro-phenyl)-2-methyl-1,1-dioxo-N5-[(1-phenylimidazol-4-yl)methyl]-1,2,6-thiadiazinane-3,5-dicarboxamide]
- EC50 [1]: < 0.05 µM

SMILES: CN1C(C(=O)Nc2ccc(F)c(Cl)c2)CC(C(=O)NCc2cn(-c3ccccc3)cn2)NS1(=O)=O (single isomer, unassigned) [1145-ISOMER-B, N3-(3-chloro-4-fluoro-phenyl)-2-methyl-1,1-dioxo-N5-[(1-phenylimidazol-4-yl)methyl]-1,2,6-thiadiazinane-3,5-dicarboxamide]
- EC50: 0.1 to 10 µM

SMILES: CN1C(C(=O)Nc2ccc(F)c(Cl)c2)CC(C(=O)NCc2cc(-c3ccccc3)on2)NS1(=O)=O (single isomer, unassigned) [1149-ISOMER-A, N3-(3-chloro-4-fluoro-phenyl)-2-methyl-1,1-dioxo-N5-[(5-phenylisoxazol-3-yl)methyl]-1,2,6-thiadiazinane-3,5-dicarboxamide]
- EC50 [1]: < 0.05 µM

SMILES: Cc1c(CNC(=O)C2CC(C(=O)Nc3ccc(F)c(Cl)c3)N(C)S(=O)(=O)N2)noc1-c1ccccc1 (single isomer, unassigned) [1150-ISOMER-A, N3-(3-chloro-4-fluoro-phenyl)-2-methyl-N5-[(4-methyl-5-phenyl-isoxazol-3-yl)methyl]-1,1-dioxo-1,2,6-thiadiazinane-3,5-dicarboxamide]
- EC50 [1]: < 0.05 µM

SMILES: Cc1c(CNC(=O)C2CC(C(=O)Nc3ccc(F)c(Cl)c3)N(C)S(=O)(=O)N2)noc1-c1ccccc1 (single isomer, unassigned) [1150-ISOMER-B, N3-(3-chloro-4-fluoro-phenyl)-2-methyl-N5-[(4-methyl-5-phenyl-isoxazol-3-yl)methyl]-1,1-dioxo-1,2,6-thiadiazinane-3,5-dicarboxamide]
- EC50: 0.1 to 10 µM

SMILES: CN1C(C(=O)Nc2ccc(F)c(Cl)c2)CC(C(=O)NCc2cc(-c3ccc(F)cc3)n(C)n2)NS1(=O)=O (single isomer, unassigned) [1151-ISOMER-A, N3-(3-chloro-4-fluoro-phenyl)-N5-[[5-(4-fluorophenyl)-1-methyl-pyrazol-3-yl]methyl]-2-methyl-1,1-dioxo-1,2,6-thiadiazinane-3,5-dicarboxamide]
- EC50 [1]: < 0.05 µM

SMILES: CN1C(C(=O)Nc2ccc(F)c(Cl)c2)CC(C(=O)NCc2cc(-c3ccc(F)cc3)n(C)n2)NS1(=O)=O (single isomer, unassigned) [1151-ISOMER-B, N3-(3-chloro-4-fluoro-phenyl)-N5-[[5-(4-fluorophenyl)-1-methyl-pyrazol-3-yl]methyl]-2-methyl-1,1-dioxo-1,2,6-thiadiazinane-3,5-dicarboxamide]
- EC50: 0.1 to 10 µM

SMILES: CN1C(C(=O)Nc2ccc(F)c(Cl)c2)CC(C(=O)NCc2ncc(-c3ccc(F)cc3)s2)NS1(=O)=O (single isomer, unassigned) [1153-ISOMER-A, N3-(3-chloro-4-fluoro-phenyl)-N5-[[5-(4-fluorophenyl)thiazol-2-yl]methyl]-2-methyl-1,1-dioxo-1,2,6-thiadiazinane-3,5-dicarboxamide]
- EC50 [1]: < 0.05 µM

SMILES: CN1C(C(=O)Nc2ccc(F)c(Cl)c2)CC(C(=O)NCc2ncc(-c3ccc(F)cc3)s2)NS1(=O)=O (single isomer, unassigned) [1153-ISOMER-B, N3-(3-chloro-4-fluoro-phenyl)-N5-[[5-(4-fluorophenyl)thiazol-2-yl]methyl]-2-methyl-1,1-dioxo-1,2,6-thiadiazinane-3,5-dicarboxamide]
- EC50: 0.1 to 10 µM

SMILES: CN1C(C(=O)Nc2ccc(F)c(Cl)c2)CC(C(=O)NCC2CCCCC2)NS1(=O)=O (single isomer, unassigned) [1160-ISOMER-A, N3-(3-chloro-4-fluoro-phenyl)-N5-(cyclohexylmethyl)-2-methyl-1,1-dioxo-1,2,6-thiadiazinane-3,5-dicarboxamide]
- EC50 [1]: 0.05 to 0.1 µM

SMILES: CN1C(C(=O)Nc2ccc(F)c(Cl)c2)CC(C(=O)NCC2CCCCC2)NS1(=O)=O (single isomer, unassigned) [1160-ISOMER-B, N3-(3-chloro-4-fluoro-phenyl)-N5-(cyclohexylmethyl)-2-methyl-1,1-dioxo-1,2,6-thiadiazinane-3,5-dicarboxamide]
- EC50: 0.1 to 10 µM

SMILES: CN(C)CCCCc1cnn(-c2ncc(CNC(=O)C3CC(C(=O)Nc4ccc(F)c(Cl)c4)N(C)S(=O)(=O)N3)s2)c1 (single isomer, unassigned) [1197-ISOMER-A, N3-(3-chloro-4-fluoro-phenyl)-N5-[[2-[4-[4-(dimethylamino)butyl]pyrazol-1-yl]thiazol-5-yl]methyl]-2-methyl-1,1-dioxo-1,2,6-thiadiazinane-3,5-dicarboxamide]
- EC50 [1]: 0.1 to 10 µM

SMILES: CN(C)CCCCc1cnn(-c2ncc(CNC(=O)C3CC(C(=O)Nc4ccc(F)c(Cl)c4)N(C)S(=O)(=O)N3)s2)c1 (single isomer, unassigned) [1197-ISOMER-B, N3-(3-chloro-4-fluoro-phenyl)-N5-[[2-[4-[4-(dimethylamino)butyl]pyrazol-1-yl]thiazol-5-yl]methyl]-2-methyl-1,1-dioxo-1,2,6-thiadiazinane-3,5-dicarboxamide]
- EC50: 0.05 to 0.1 µM

SMILES: CN1C(C(=O)Nc2ccc(F)c(Cl)c2)CC(C(=O)NCc2cnc(Cl)s2)NS1(=O)=O (single isomer, unassigned) [1199-ISOMER-A, N3-(3-chloro-4-fluoro-phenyl)-N5-[(2-chlorothiazol-5-yl)methyl]-2-methyl-1,1-dioxo-1,2,6-thiadiazinane-3,5-dicarboxamide]
- EC50 [1]: < 0.05 µM

SMILES: CN1C(C(=O)Nc2ccc(F)c(Cl)c2)CC(C(=O)NCc2cnc(Cl)s2)NS1(=O)=O (single isomer, unassigned) [1199-ISOMER-B, N3-(3-chloro-4-fluoro-phenyl)-N5-[(2-chlorothiazol-5-yl)methyl]-2-methyl-1,1-dioxo-1,2,6-thiadiazinane-3,5-dicarboxamide]
- EC50: 0.1 to 10 µM
